Laboratory results published in patent publication US10435399B2, “HDAC6 inhibitory heterocyclic compound” (TAKEDA PHARMACEUTICAL COMPANY LIMITED, priority 2017, dated 2019).

target: T1, HDAC6 enzyme (Homo sapiens, UniProt Q9UBN7); experiment: HDAC6 enzyme inhibitory activity (HDAC-Glo I/II Assay kit); assay type: biochemical; details: 10 μM; wells without enzyme = 100% inhibition; read-out: HDAC6 inhibitory rate (%) (10 μM)
T1 construct: transducing full length HDAC6 gene into Sf-9 insect cells; GST; purchased SignalChem; host or cells: Sf-9 insect cells
T1 sequence (Q9UBN7 1-1215): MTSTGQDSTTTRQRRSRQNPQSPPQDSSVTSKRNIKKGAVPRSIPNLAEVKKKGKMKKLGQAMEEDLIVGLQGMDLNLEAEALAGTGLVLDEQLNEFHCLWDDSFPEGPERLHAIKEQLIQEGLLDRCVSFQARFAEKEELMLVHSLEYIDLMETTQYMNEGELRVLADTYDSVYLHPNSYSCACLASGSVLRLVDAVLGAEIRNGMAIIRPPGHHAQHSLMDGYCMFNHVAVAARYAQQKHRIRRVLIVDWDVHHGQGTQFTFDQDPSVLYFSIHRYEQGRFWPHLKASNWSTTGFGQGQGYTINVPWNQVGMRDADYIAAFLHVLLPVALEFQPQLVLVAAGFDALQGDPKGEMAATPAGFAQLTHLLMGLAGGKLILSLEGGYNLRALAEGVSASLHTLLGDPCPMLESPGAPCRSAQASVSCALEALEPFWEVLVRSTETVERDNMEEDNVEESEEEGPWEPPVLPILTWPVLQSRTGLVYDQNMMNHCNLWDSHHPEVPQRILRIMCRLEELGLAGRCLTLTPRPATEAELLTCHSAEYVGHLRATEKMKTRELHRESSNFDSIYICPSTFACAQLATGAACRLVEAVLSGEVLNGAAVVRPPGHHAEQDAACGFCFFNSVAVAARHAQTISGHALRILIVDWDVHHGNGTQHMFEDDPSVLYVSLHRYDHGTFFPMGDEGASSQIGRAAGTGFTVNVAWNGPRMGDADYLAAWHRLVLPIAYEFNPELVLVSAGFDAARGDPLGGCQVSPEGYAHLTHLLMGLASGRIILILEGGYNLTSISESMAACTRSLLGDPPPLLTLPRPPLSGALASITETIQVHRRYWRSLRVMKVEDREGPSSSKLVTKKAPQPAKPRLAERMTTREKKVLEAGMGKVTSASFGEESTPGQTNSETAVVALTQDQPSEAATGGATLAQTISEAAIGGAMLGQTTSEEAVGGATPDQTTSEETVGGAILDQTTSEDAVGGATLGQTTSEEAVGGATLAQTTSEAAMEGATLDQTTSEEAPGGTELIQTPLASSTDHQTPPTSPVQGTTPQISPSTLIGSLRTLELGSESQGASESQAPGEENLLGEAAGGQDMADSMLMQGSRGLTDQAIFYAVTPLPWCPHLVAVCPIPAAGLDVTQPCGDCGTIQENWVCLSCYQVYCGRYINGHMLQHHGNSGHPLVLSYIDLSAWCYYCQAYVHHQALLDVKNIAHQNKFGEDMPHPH
How it was run: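 Test compound is preincubated 60 min at RT with full-length insect-cell HDAC6 in Tris-HCl pH 7.5 with 135 mM NaCl and 1 mM MgCl2. A 20 min room-temperature HDAC-Glo reaction follows, with luminescent read-out.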

| SMILES | inhibition at 10 µM [%] |
| --- | --- |
| N#Cc1cccc(-c2c(Cl)cccc2N2Cc3ccc(-c4nnc(C(F)F)o4)cc3C2=O)c1 [Example 401, 2′-chloro-6′-(6-(5-(difluoro-methyl)-1,3,4-oxadiazol-2-yl)-1-oxo-1,3-dihydro-2H-isoindol-2-yl) biphenyl-3-carbonitrile] | 99 |
| Cn1cc(-c2c(Cl)cccc2N2Cc3ccc(-c4nnc(C(F)F)o4)cc3C2=O)cn1 [Example 403, 2-(3-chloro-2-(1-methyl-1H-pyrazol-4-yl)phenyl)-6-(5-(difluoro-methyl)-1,3,4-oxadiazol-2-yl) isoindolin-1-one] | 102 |
| O=C1c2cc(-c3nnc(C(F)F)o3)ccc2CN1c1ccc(Cl)cc1-c1cnn(C(F)F)c1 [Example 405, 2-(4-chloro-2-(1-(difluoro-methyl)-1H-pyrazol-4-yl)phenyl)-6-(5-(difluoro-methyl)-1,3,4-oxadiazol-2-yl) isoindolin-1-one] | 101 |
| O=C1c2cc(-c3nnc(C(F)F)o3)cnc2CN1c1ccc(F)cc1Br [Example 406, 6-(2-bromo-4-fluorophenyl)-3-(5-(difluoromethyl)-1,3,4-oxadiazol-2-yl)-6,7-dihydro-5H-pyrrolo[3,4-b]pyridin-5-one] | 100 |
| O=C1c2cc(-c3nnc(C(F)F)o3)cnc2CN1c1ccc(F)cc1-c1cccc(F)c1 [Example 409, 6-(3′,5-difluoro-biphenyl-2-yl)-3-(5-(difluoro-methyl)-1,3,4-oxadiazol-2-yl)-6,7-dihydro-5H-pyrrolo [3,4-b]pyridin-5-one] | 99 |

Further lines, results first:

| inhibition at 10 µM [%] | SMILES |
| --- | --- |
| 102 | O=C1c2cc(-c3nnc(C(F)F)o3)ccc2CN1c1cccc(F)c1-c1cccc(F)c1 [Example 398, 2-(3′,6-difluoro-biphenyl-2-yl)-6-(5-(difluoro-methyl)-1,3,4-oxadiazol-2-yl) isoindolin-1-one] |
| 101 | O=C1c2cc(-c3nnc(C(F)F)o3)ccc2CN1[C@@H]1CCOC[C@H]1NCC(F)(F)F [Example 399, 6-(5-(difluoromethyl)-1,3,4-oxadiazol-2-yl)-2-((3S,4R)-3-((2,2,2-trifluoroethyl)amino)tetrahydro-2H-pyran-4-yl)isoindolin-1-one] |
| 99 | O=C1c2cc(-c3nnc(C(F)F)o3)cnc2CN1[C@@H]1CCOC[C@H]1NCC(F)(F)F [Example 400, 3-(5-(difluoro-methyl)-1,3,4-oxadiazol-2-yl)-6-((3S,4R)-3-((2,2,2-trifluoro-ethyl)amino)tetrahydro-2H-pyran-4-yl)-6,7-dihydro-5H-pyrrolo[3,4-b] pyridin-5-one] |
| 100 | O=C1c2cc(-c3nnc(C(F)F)o3)ccc2CN1c1cccc(Cl)c1-c1cnn(C(F)F)c1 [Example 402, 2-(3-chloro-2-(1-(difluoro-methyl)-1H-pyrazol-4-yl)phenyl)-6-(5-(difluoro-methyl)-1,3,4-oxadiazol-2-yl) isoindolin-1-one] |
| 100 | O=C1c2cc(-c3nnc(C(F)F)o3)ccc2CN1c1cccc(Cl)c1-c1cccc(F)c1 [Example 404, 2-(6-chloro-3′-fluoro-biphenyl-2-yl)-6-(5-(difluoro-methyl)-1,3,4-oxadiazol-2-yl) isoindolin-1-one] |
| 99 | N#Cc1cccc(-c2cc(F)ccc2N2Cc3ncc(-c4nnc(C(F)F)o4)cc3C2=O)c1 [Example 407, 2′-(3-(5-(difluoro-methyl)-1,3,4-oxadiazol-2-yl)-5-oxo-5,7-dihydro-6H-pyrrolo[3,4-b]pyridin-6-yl)-5′-fluoro-biphenyl-3-carbonitrile] |
| 99 | O=C1c2cc(-c3nnc(C(F)F)o3)cnc2CN1c1ccc(F)cc1-c1cnn(C(F)F)c1 [Example 408, 3-(5-(difluoro-methyl)-1,3,4-oxadiazol-2-yl)-6-(2-(1-(difluoro-methyl)-1H-pyrazol-4-yl)-4-fluorophenyl)-6,7-dihydro-5H-pyrrolo[3,4-b] pyridin-5-one] |
